Experimental data taken from PMC7955127, “Preclinical small molecule WEHI-7326 overcomes drug resistance and elicits response in patient-derived xenograft models of human treatment-refractory tumors” (Cell Death & Disease, 2021).

Assay: Acute toxicity study, single intravenous dose (non-GLP)
Format: in vivo, Sprague-Dawley rats
Settings: female rats; for Lung - focal red areas medial right lobe (2 mm diameter) (incidence at necropsy) / Lung - haemorrhagic area right caudal lobe (1mm diameter) (incidence at necropsy) / Multifocal red petechiae on all lung lobes (incidence at necropsy) / Pale yellow liver (minimal) (incidence at necropsy) / ALP / ALT / APTT / AST / Albumin / Albumin/Globulin / Bilirubin (Total) / Calcium / Chloride / Cholesterol / Creatinine / Globulin / Glucose / HCT / HGB / MCH / MCHC / MCV / PLT / PT / Phosphate / Potassium / Protein (Total) / RBC / Retc. / Sodium / Triglycerides / Urea / WBC: day 15; for ALP / ALT / APTT / AST / Albumin / Albumin/Globulin / Bilirubin (Total) / Calcium / Chloride / Cholesterol / Creatinine / Globulin / Glucose / HCT / HGB / MCH / MCHC / MCV / PLT / PT / Phosphate / Potassium / Protein (Total) / RBC / Retc. / Sodium / Triglycerides / Urea / WBC: mean ± SD
Protocol: This acute toxicity study included a satellite group for toxicokinetic assessment. The toxicity study was comprised of 12 male and 12 female rats, which were allocated into four groups of three males and three females. The toxicity of the test substance, WEHI-7326 dihydrochloride (referred to as WEHI-7326 from here), was tested at three dose concentrations of 5 mg/kg, 15 mg/kg and 30 mg/kg administered as a single dose via intravenous tail vein injection. The vehicle control, D-(+)-Glucose, was formulated at 5% w/v and administered per the above regime. On Study Day 15, all animals were terminated with blood collected for biochemistry, haematology and coagulation analysis before undergoing gross necropsy by a US board certified veterinary pathologist. The toxicokinetic satellite group comprised of 30 male rats which were allocated into four groups of three males in the vehicle control group and nine males in each of the three treatment groups. All treatment group animals were then allocated into three subgroups (A, B and C) and bled pre-dose, then 2min, 10min, 0.5h, 2h, 6h, 12h and 24h post-dose. All vehicle control group animals weren’t allocated to a specific subgroup but were bled at 10min and 12h post-dose. All TK animals were then terminated after the final blood collection. Dosing was suspended on Study Day 1 for both the Toxicity and Toxicokinetic Study animals following adverse reactions which lead to the early termination of two animals (one male treated with mid-dose WEHI-7326 from the Toxicity Study and one male treated with high-dose WEHI-7326 from the Toxicokinetic Study) approximately 5-10 minutes post-treatment. After consultation with the Sponsor, the following changes were made to the Study Design:
At the revised high dose of 20mg/kg, all male rats had to be terminated prematurely also due to reaching their body weight loss endpoint of >10% loss. […] Significant findings in clinical pathology outcomes were considered incidental and unrelated to test article treatment. The majority of macroscopic findings at necropsy were also considered to be incidental, however the findings of white streaks through the testes of male animals treated with WEHI-7326 may be related to treatment. Body weights were measured once prior to dose administration, then daily for the duration of the study and at termination. Clinical observations were performed on a daily basis.
The study followed test guideline OECD No. 420 (2001) “Acute Oral Toxicity - Fixed Dose Procedure” with the exception that the route of administration was intravenous (i.v.).

Q: For `COc1ccc(CNc2nc(NCc3ccc(CN)cc3)nc(NN3CC(=O)NC3=O)n2)cc1` [WEHI-7326], which “Body weight loss >10% (termination required) (incidence)” value (5 mg/kg single i.v.) is on record?
A: 0/3

Q: What about the “Mild fur loss around both eyes from Study Day 10 to 15 (incidence)” value (shortened to “Mild fur loss around both eyes”) (5 mg/kg single i.v.) of the same compound?
A: 0/3

Q: What about the “Mild impairment of gait and lack of response to stimuli up to 10 minutes post-dose (incidence)” value (“Mild impairment” below) (5 mg/kg single i.v.) of the same compound?
A: 0/3

Q: What about the “No remarkable observations (incidence)” value (5 mg/kg single i.v.) of the same compound?
A: 3/3

Q: What about the “Lung - focal red areas medial right lobe (2 mm diameter) (incidence at necropsy)” value (“Lung - focal red areas medial right lobe” for short) (5 mg/kg single i.v.) of the same compound?
A: 0/3

Q: And the “Lung - haemorrhagic area right caudal lobe (1mm diameter) (incidence at necropsy)” value (“Lung … (1mm diameter) (incidence at necropsy)” for short) (5 mg/kg single i.v.)?
A: 0/3

Q: And the “Multifocal red petechiae on all lung lobes (incidence at necropsy)” value (from here on “Multifocal red petechiae”) (5 mg/kg single i.v.)?
A: 1/3

Q: What about the “Pale yellow liver (minimal) (incidence at necropsy)” value (“Pale yellow liver (minimal)” for short) (5 mg/kg single i.v.) of the same compound?
A: 1/3

Q: And the ALP (5 mg/kg single i.v.)?
A: 286 ± 65 U/L

Q: What about the ALT (5 mg/kg single i.v.) of the same compound?
A: 54 ± 11 U/L

Q: And the APTT (5 mg/kg single i.v.)?
A: 17.2 ± 1.9 s

Q: What about the AST (5 mg/kg single i.v.) of the same compound?
A: 93 ± 13 U/L

Q: And the Albumin (5 mg/kg single i.v.)?
A: 37.3 ± 3.1 g/L

Q: And the Albumin/Globulin (5 mg/kg single i.v.)?
A: 1.6 ± 0.4 Ratio

Q: What about the “Bilirubin (Total)” value (5 mg/kg single i.v.) of the same compound?
A: 0.8 ± 0.1 µM

Q: What about the Calcium (5 mg/kg single i.v.) of the same compound?
A: 2.59 ± 0.07 mM

Q: What about the Chloride (5 mg/kg single i.v.) of the same compound?
A: 102.4 ± 0.5 mM

Q: And the Cholesterol (5 mg/kg single i.v.)?
A: 1.98 ± 0.21 mM

Q: And the Creatinine (5 mg/kg single i.v.)?
A: 30 ± 3 µM

Q: What about the Globulin (5 mg/kg single i.v.) of the same compound?
A: 23.7 ± 3.4 g/L

Q: What about the Glucose (5 mg/kg single i.v.) of the same compound?
A: 7.57 ± 0.07 mM

Q: And the HCT (5 mg/kg single i.v.)?
A: 0.45 ± 0.01 L/L

Q: And the HGB (5 mg/kg single i.v.)?
A: 137.3 ± 4.9 g/L

Q: What about the MCH (5 mg/kg single i.v.) of the same compound?
A: 18.87 ± 0.45 pg

Q: What about the MCHC (5 mg/kg single i.v.) of the same compound?
A: 303.0 ± 4.4 g/L

Q: What about the MCV (5 mg/kg single i.v.) of the same compound?
A: 62.3 ± 0.9 fL

Q: What about the PLT (5 mg/kg single i.v.) of the same compound?
A: 1080.0 ± 206.7 10^9/L

Q: And the PT (5 mg/kg single i.v.)?
A: 21.9 ± 1.0 s

Q: What about the Phosphate (5 mg/kg single i.v.) of the same compound?
A: 1.75 ± 0.14 mM

Q: What about the Potassium (5 mg/kg single i.v.) of the same compound?
A: 5.30 ± 0.14 mM

Q: And the “Protein (Total)” value (5 mg/kg single i.v.)?
A: 61.0 ± 0.4 g/L

Q: What about the RBC (5 mg/kg single i.v.) of the same compound?
A: 7.27 ± 0.14 10^12/L

Q: What about the Retc. (5 mg/kg single i.v.) of the same compound?
A: 3.76 ± 0.62%

Q: What about the Sodium (5 mg/kg single i.v.) of the same compound?
A: 138 ± 1 mM

Q: And the Triglycerides (5 mg/kg single i.v.)?
A: 0.86 ± 0.29 mM

Q: And the Urea (5 mg/kg single i.v.)?
A: 6.56 ± 1.18 mM

Q: What about the WBC (5 mg/kg single i.v.) of the same compound?
A: 11.28 ± 4.18 10^9/L

Q: And the “Body weight loss >10% (termination required) (incidence)” value (15 mg/kg single i.v.)?
A: 2/3

Q: What about the “Mild fur loss around both eyes” value (15 mg/kg single i.v.) of the same compound?
A: 0/3

Q: What about the “Mild impairment” value (15 mg/kg single i.v.) of the same compound?
A: 0/3

Q: And the “No remarkable observations (incidence)” value (15 mg/kg single i.v.)?
A: 1/3

Q: What about the “Lung - focal red areas medial right lobe” value (15 mg/kg single i.v.) of the same compound?
A: 0/1

Q: And the “Lung … (1mm diameter) (incidence at necropsy)” value (15 mg/kg single i.v.)?
A: 0/1

Q: What about the “Multifocal red petechiae” value (15 mg/kg single i.v.) of the same compound?
A: 0/1

Q: And the “Pale yellow liver (minimal)” value (15 mg/kg single i.v.)?
A: 0/1

Q: And the ALP (15 mg/kg single i.v.)?
A: 218 ± 0 U/L

Q: What about the ALT (15 mg/kg single i.v.) of the same compound?
A: 55 ± 0 U/L

Q: And the APTT (15 mg/kg single i.v.)?
A: 18.6 ± 0.0 s

Q: And the AST (15 mg/kg single i.v.)?
A: 73 ± 0 U/L

Q: And the Albumin (15 mg/kg single i.v.)?
A: 37.7 ± 0 g/L

Q: What about the Albumin/Globulin (15 mg/kg single i.v.) of the same compound?
A: 1.3 ± 0 Ratio

Q: What about the “Bilirubin (Total)” value (15 mg/kg single i.v.) of the same compound?
A: 1.0 ± 0 µM

Q: What about the Calcium (15 mg/kg single i.v.) of the same compound?
A: 2.48 ± 0 mM

Q: And the Chloride (15 mg/kg single i.v.)?
A: 102.5 ± 0 mM

Q: And the Cholesterol (15 mg/kg single i.v.)?
A: 1.59 ± 0 mM

Q: What about the Creatinine (15 mg/kg single i.v.) of the same compound?
A: 27 ± 0 µM

Q: What about the Globulin (15 mg/kg single i.v.) of the same compound?
A: 28.8 ± 0 g/L

Q: What about the Glucose (15 mg/kg single i.v.) of the same compound?
A: 7.31 ± 0 mM

Q: And the HCT (15 mg/kg single i.v.)?
A: 0.45 ± 0.00 L/L

Q: And the HGB (15 mg/kg single i.v.)?
A: 136.0 ± 0.0 g/L

Q: And the MCH (15 mg/kg single i.v.)?
A: 18.70 ± 0.00 pg

Q: What about the MCHC (15 mg/kg single i.v.) of the same compound?
A: 306.0 ± 0.0 g/L

Q: And the MCV (15 mg/kg single i.v.)?
A: 60.90 ± 0.0 fL

Q: What about the PLT (15 mg/kg single i.v.) of the same compound?
A: 970.0 ± 0.0 10^9/L

Q: What about the PT (15 mg/kg single i.v.) of the same compound?
A: 19.9 ± 0.0 s

Q: And the Phosphate (15 mg/kg single i.v.)?
A: 1.53 ± 0 mM

Q: And the Potassium (15 mg/kg single i.v.)?
A: 4.53 ± 0 mM

Q: And the “Protein (Total)” value (15 mg/kg single i.v.)?
A: 66.5 ± 0 g/L

Q: And the RBC (15 mg/kg single i.v.)?
A: 7.31 ± 0.00 10^12/L

Q: What about the Retc. (15 mg/kg single i.v.) of the same compound?
A: 4.52 ± 0.00%

Q: What about the Sodium (15 mg/kg single i.v.) of the same compound?
A: 140 ± 0 mM

Q: What about the Triglycerides (15 mg/kg single i.v.) of the same compound?
A: 0.76 ± 0 mM

Q: And the Urea (15 mg/kg single i.v.)?
A: 6.91 ± 0 mM

Q: And the WBC (15 mg/kg single i.v.)?
A: 10.28 ± 0.00 10^9/L

Q: What about the “Body weight loss >10% (termination required) (incidence)” value (20 mg/kg single i.v.) of the same compound?
A: 0/3

Q: And the “Mild fur loss around both eyes” value (20 mg/kg single i.v.)?
A: 1/3

Q: What about the “Mild impairment” value (20 mg/kg single i.v.) of the same compound?
A: 1/3

Q: And the “No remarkable observations (incidence)” value (20 mg/kg single i.v.)?
A: 2/3

Q: What about the “Lung - focal red areas medial right lobe” value (20 mg/kg single i.v.) of the same compound?
A: 1/3

Q: And the “Lung … (1mm diameter) (incidence at necropsy)” value (20 mg/kg single i.v.)?
A: 1/3

Q: What about the “Multifocal red petechiae” value (20 mg/kg single i.v.) of the same compound?
A: 0/3

Q: What about the “Pale yellow liver (minimal)” value (20 mg/kg single i.v.) of the same compound?
A: 0/3

Q: And the ALP (20 mg/kg single i.v.)?
A: 171 ± 38 U/L

Q: And the ALT (20 mg/kg single i.v.)?
A: 70 ± 9 U/L

Q: And the APTT (20 mg/kg single i.v.)?
A: 17.3 ± 1.0 s

Q: And the AST (20 mg/kg single i.v.)?
A: 93 ± 14 U/L

Q: And the Albumin (20 mg/kg single i.v.)?
A: 36.5 ± 1.1 g/L

Q: What about the Albumin/Globulin (20 mg/kg single i.v.) of the same compound?
A: 1.3 ± 0.1 Ratio

Q: And the “Bilirubin (Total)” value (20 mg/kg single i.v.)?
A: 1.2 ± 0.3 µM

Q: What about the Calcium (20 mg/kg single i.v.) of the same compound?
A: 2.71 ± 0.12 mM

Q: What about the Chloride (20 mg/kg single i.v.) of the same compound?
A: 100.5 ± 0.7 mM

Q: What about the Cholesterol (20 mg/kg single i.v.) of the same compound?
A: 2.16 ± 0.31 mM

Q: What about the Creatinine (20 mg/kg single i.v.) of the same compound?
A: 38 ± 5 µM

Q: What about the Globulin (20 mg/kg single i.v.) of the same compound?
A: 27.9 ± 1.2 g/L

Q: And the Glucose (20 mg/kg single i.v.)?
A: 7.29 ± 0.68 mM

Q: What about the HCT (20 mg/kg single i.v.) of the same compound?
A: 0.46 ± 0.01 L/L

Q: And the HGB (20 mg/kg single i.v.)?
A: 134.3 ± 3.2 g/L

Q: And the MCH (20 mg/kg single i.v.)?
A: 18.53 ± 0.84 pg

Q: What about the MCHC (20 mg/kg single i.v.) of the same compound?
A: 290.7 ± 1.5 g/L

Q: What about the MCV (20 mg/kg single i.v.) of the same compound?
A: 63.7 ± 2.5 fL

Q: What about the PLT (20 mg/kg single i.v.) of the same compound?
A: 957.0 ± 63.5 10^9/L
